Measured values taken from patent publication US10821099B2, “Use of tradipitant in motion sickness” (Vanda Pharmaceuticals Inc., priority 2018, dated 2020).
Where two headings read alike, the source gives them in different places.

What was measured:
[1] = test system: NK-1 agonist (GR73632)-induced foot-tapping behavior; experiment: NK-1 agonist (GR73632, icv)-induced foot-tapping behavior in gerbils; format: in vivo, Mongolian gerbil
Experimental: Immediately after injection, animals are placed individually into isolated chambers with pressure-sensitive velocimeter platform floors (San Diego Instruments acoustic startle apparatus) that detect and quantify vibration. The San Diego Instruments “SR” DOS-based computer program is used on a PC to record the number of foot-taps over the following 6 to 10 minutes, beginning 30 seconds after the floor is lightly tapped. Raw data are converted with a Microsoft® Excel® (Microsoft® and Excel® are registered trademarks of Microsoft Corp., Redmond, Wash.) macro that determines the number of events over threshold (125) in each 250-millisecond time bin over the 5.5 minutes following onset of observation. The total number and average intensity of events over the duration is determined. Total number of taps is analyzed with one-way ANOVA and post-hoc Dunnett's test using JMP statistical software. A dose-response curve (with doses of 0.3, 1, 3 and 10 pmols, icv) is initially generated with the NK-1 agonist GR73632. […] NK-1 antagonists are tested for their ability to attenuate GR73632-induced foot tapping. NK-1 antagonists are administered (po) via oral feeding tube at doses and time points specified in each experiment. All animals receive only one dose of NK-1 antagonists in all tests. NK-1 antagonists are administered at multiple doses (at least 3; one dose per animal) and response to GR73632 is measured. NK-1 receptor antagonists are administered at multiple pre-treatment times (one administration per animal) including at 0.5, 1, 2, 4, 7, 16, and 24 hours prior to GR73632 injection. GR73632 (Peninsula Labs, CA) is dissolved in saline. Tradipitant is dissolved in 1% CMC/0.5% SLS/0.085% PVP vehicle.

[2] = test system: vomiting due to motion sickness; conditions: crossover study; cited from earlier work
[3] = test system: NK-1 agonist (GR73632)-induced vocalization; experiment: GR73632-induced vocalization in guinea pigs; format: in vivo, guinea pig
Experimental: Male Dunkin/Hartley guinea pigs (200 to 250 grams) are orally administered either vehicle or an NK-1 antagonist. Approximately 45 minutes later (for dose response studies), the animals are anesthetized and 0.1 nmol of GR73632 (SP analog) in a vehicle volume of 5 μl is injected into the cerebral ventricle at the intersection of bregma and the midline of the skull. Animals are placed in a dark testing chamber located inside of a sound attenuation cubicle and vocalizations are recorded for 30 minutes following recovery from anesthesia. The time spent vocalizing is quantified for each animal. In the duration of action study, 0.1 mg/kg of tradipitant or vehicle solution is administered orally and then 2, 4, or 7 hours later, 0.1 nmol of GR73632 is administered into the cerebral ventricle as described above. Vocalizations are recorded and quantified as indicated above. Vehicle solutions are either CMC (FIG. 4 data) or an ethanol/emulphor solution (FIGS. 5 and 6). Data is analyzed using one-tailed t-tests.

[4] = Plasma concentration of tradipitant 2 hours post-dose in dogs; format: in vivo; conditions: male, beagle, dog, oral, read-out: Concentration of tradipitant in plasma, Mean (SD)
Experimental: (§1) All animals are dosed over a period of five (5) weeks, with each dog receiving one of five different treatments on each day of dosing. […] In cases where apomorphine is administered alone, without prior treatment with tradipitant or aprepitant, apomorphine is given at approximately the same time as when given in combination with tradipitant or aprepitant.

NK-3 receptor = target: T1, NK-3 receptor (Homo sapiens, UniProt P29371); experiment: NK-3 receptor inhibition; format: binding
T1 sequence (P29371 1-465): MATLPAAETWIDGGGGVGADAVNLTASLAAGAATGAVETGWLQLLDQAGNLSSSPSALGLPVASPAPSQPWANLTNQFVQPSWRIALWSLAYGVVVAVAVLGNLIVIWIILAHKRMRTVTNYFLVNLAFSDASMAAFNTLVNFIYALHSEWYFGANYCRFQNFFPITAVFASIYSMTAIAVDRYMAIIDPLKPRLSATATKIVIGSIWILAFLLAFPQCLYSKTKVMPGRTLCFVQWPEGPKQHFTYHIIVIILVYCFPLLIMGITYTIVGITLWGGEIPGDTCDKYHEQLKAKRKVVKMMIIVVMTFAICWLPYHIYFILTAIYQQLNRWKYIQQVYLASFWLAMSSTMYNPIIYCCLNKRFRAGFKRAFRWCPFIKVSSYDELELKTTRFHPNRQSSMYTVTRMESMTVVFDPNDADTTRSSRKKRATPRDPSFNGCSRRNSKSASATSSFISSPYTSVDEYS

[5] = test system: apomorphine-induced emesis; experiment: Emetic challenge study (apomorphine-induced emesis) in beagle dogs; format: in vivo, beagle dog; conditions: each dose tested (0.3, 1.0, and 3.0 mg/kg)
Experimental: Each animal is administered a different dose on a particular dosing day, so that each dose of tradipitant, aprepitant, and apomorphine alone is represented. Over the five (5) weeks of the study, each animal receives each of the treatments, but only one per week. The purpose of this study is to determine if tradipitant suppresses apomorphine-induced emesis.
as §1
All dogs are fasted overnight prior to each treatment day and then fed approximately one (1) hour after oral dosing (approximately one (1) hour prior to administration of apomorphine). Individual doses are adjusted weekly for changes in body weight.
The dose regimen consists of a 5×5 Latin square design, in which each subject receives 1 dose or dose combination per week (6 day washout) as shown in Table 3 below.

NK-1 receptor [6] = target: T2, NK-1 receptor (Homo sapiens, UniProt P25103); experiment: SP-induced mobilization of intracellular calcium in U373 cells; format: cell-based; design: mobilization of intracellular calcium in U373 cells; endogenous in cells; host or cells: U373 cells
T2 sequence (P25103 whole entry): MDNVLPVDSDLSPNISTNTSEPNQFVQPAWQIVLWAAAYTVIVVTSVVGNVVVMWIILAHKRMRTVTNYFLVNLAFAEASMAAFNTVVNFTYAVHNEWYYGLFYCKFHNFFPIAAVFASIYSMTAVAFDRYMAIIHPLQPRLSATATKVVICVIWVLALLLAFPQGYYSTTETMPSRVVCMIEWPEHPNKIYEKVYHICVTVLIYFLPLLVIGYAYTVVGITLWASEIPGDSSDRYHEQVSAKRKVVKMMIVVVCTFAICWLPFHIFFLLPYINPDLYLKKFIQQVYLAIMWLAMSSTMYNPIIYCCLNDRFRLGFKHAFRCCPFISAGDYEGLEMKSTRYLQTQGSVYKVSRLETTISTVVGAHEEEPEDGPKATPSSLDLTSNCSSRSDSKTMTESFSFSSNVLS

[7] = test system: panel of 74 other receptors, enzymes, and ion channels; experiment: Binding panel of 74 other receptors, enzymes and ion channels
NK-1 receptor [8] = target: T2, NK-1 receptor; experiment: [125I] substance P binding to the NK-1 receptor, IM-9 human cell membrane binding; design: NK-1 receptor expressed by IM-9 cells; endogenous in cells; host or cells: IM-9 human cells (membranes); conditions: Table 1
NK-2 receptor = target: T3, NK-2 receptor (Homo sapiens, UniProt P21452); experiment: NK-2 receptor inhibition; format: binding
T3 sequence (P21452 1-398): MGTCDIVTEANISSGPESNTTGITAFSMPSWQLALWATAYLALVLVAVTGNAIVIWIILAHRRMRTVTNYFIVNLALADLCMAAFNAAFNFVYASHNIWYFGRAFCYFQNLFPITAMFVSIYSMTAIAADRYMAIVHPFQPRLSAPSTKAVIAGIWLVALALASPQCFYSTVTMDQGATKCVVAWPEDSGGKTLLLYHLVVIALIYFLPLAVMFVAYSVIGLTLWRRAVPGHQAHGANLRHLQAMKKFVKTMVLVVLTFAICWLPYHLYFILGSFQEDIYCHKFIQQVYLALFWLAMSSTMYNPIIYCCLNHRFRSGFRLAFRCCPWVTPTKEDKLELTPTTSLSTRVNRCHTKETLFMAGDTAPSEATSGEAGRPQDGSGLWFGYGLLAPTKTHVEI

For `C[C@@H](O[C@H]1OCCN(Cc2n[nH]c(=O)[nH]2)[C@H]1c1ccc(F)cc1)c1cc(C(F)(F)F)cc(C(F)(F)F)c1` [Aprepitant, reference compound], the “time after administration up to which foot-tapping is inhibited” value ([1]; 1 mg/kg) was “up to 24 hours”.

In the case of `COc1ccc(C(C)(C)C)cc1CN[C@H]1C2CCN(CC2)[C@H]1C(c1ccccc1)c1ccccc1` [Maropitant], the “dogs in which the occurrence of vomiting was reduced as compared to placebo” value [2] is listed as “over 75%”.

For `O=C(c1ccccc1Cl)c1cccnc1-c1nnn(Cc2cc(C(F)(F)F)cc(C(F)(F)F)c2)c1-c1ccncc1` [Tradipitant, {2-[1-(3,5-bistrifluoromethylbenzyl)-5-pyridin-4-yl-1H-[1,2,3]triazol-4-yl]-pyridin-3-yl}-(2-chlorophenyl)-methanone], the “time after administration up to which foot-tapping is significantly inhibited” value ([1]; 0.1 mg/kg, po) was “up to 7 hours”, the “effect on foot-tapping by 16 hours after administration” value ([1]; 0.1 mg/kg, po, 16 hours) was “significantly diminished” and the inhibition at 1 mg/kg ([1]; Meriones unguiculatus, po, 1 mg/kg, 16 hours after administration) was > 50%. For the same molecule, the ED50 ([1]; Meriones unguiculatus, oral, 2 hours after administration, GR73632 3 pmol icv, read-out: ED50, inhibition of foot-tapping behavior) was 0.03 ± 0.004 mg/kg, the “suppression of agonist-induced vocalization at 7 hours” value ([3]; 0.1 mg/kg oral, 7 hours after administration) was “significantly active” and the duration of activity ([3]; administered orally) was “exceeds 7 hours”. The “inhibitory activity on vocalization at and below 0.1 mg/kg” value ([3]; at and below 0.1 mg/kg oral, FIG. 6) was “retains significant inhibitory activity”, the “inhibition of agonist-induced vocalization” value ([3]; oral doses of 10, 1.0, 0.1 and 0.05 mg/kg (each p<0.001), FIG. 4) was “significant inhibition” and the “minimum effective dose (MED), inhibition of vocalization” value ([3]; oral, p<0.001 compared to controls) was 0.025 mg/kg. It also gave a concentration at 2 h ([4]; 0.3 mg/kg, 0.3 mg/kg oral) of 57.9 ng/mL, a concentration at 2 h ([4]; 1 mg/kg, 1.0 mg/kg oral) of 133 ng/mL and a concentration at 2 h ([4]; 3 mg/kg, 3.0 mg/kg oral) of 300 ng/mL. The “inhibition at the NK-3 receptor” value (NK-3 receptor) was “no significant inhibition”, the “efficacy against apomorphine-induced emesis” value [5] was “effective against apomorphine-induced emesis” and the Kb (NK-1 receptor [6]) was 0.095 nM. The “activity in panel of 74 additional receptors, enzymes, and ion channels including NK-2 and NK-3 receptors” value [7] was “No significant activity”, the inhibition of binding ([7]; test concentration of 1 μM) was ≤ 50% and the Ki (NK-1 receptor [8]) was 0.062 nM. For the same molecule, the “inhibition at the NK-2 receptor” value (NK-2 receptor) was “no significant inhibition”.
